Laboratory results: patent publication US20130267571A1, “TERPENOID ANALOGUES AND USES THEREOF FOR TREATING NEUROLOGICAL CONDITIONS” (NeuroQuest Inc., priority 2010, published 2013)
pEC50, pIC50: −log10 of the molar value.

Experiments:
[1] = tested on: voltage-gated Na+ channels; experiment: Sodium (Na+) channel analysis in rat DRG neurons using whole cell patch-clamp; assay type: cell-based; details: Na+ currents in isolated rat DRG neurons, 3 min in presence of drug, read-out: IC50 range
Description: Isolated DRG neurons were suspended in primary neuron basal media and placed on glass coverslips for incubation in humidified atmosphere of 5% CO2 at 37° C. Coverslips carrying cells was transferred to the bath of an inverted microscope (Zeiss), continuously perfused with oxygenated artificial cerebro-spinal fluid (ACSF) containing (in mM) 124 NaCl, 2.5 KCl, 2 CaCl2, 1 MgSO4, 25 NaHCO3, 1 NaH2PO4, and 10 glucose, at a rate of 2-3 ml/min. Recording of whole-cell membrane currents were made at room temperature. Recording pipette (4-6 MS2) was filled with internal solution containing (in mM) 145 K-gluconate, 5 NaCl, 1 MgCl2, 0.2 EGTA, 10 HEPES, 2 Mg-ATP, 0.1 Na-GTP, and 10 phosphocreatine. To isolate Na^+ currents, DRG neurons were superfused with ACSF containing tetraethylammonium chloride (TEA) 5 mM, cesium chloride (CsCl) 100 μM and cadmium chloride (CdCl) 1 mM, to block potassium and calcium currents. NQ compounds were freshly dissolved in ASCF containing TEA, CsCl and CdCl, prior application via the bath.
For recording Na^+ currents, cells were held at −60 mV before applying a conditioning hyperpolarizing step (50 ms) to −90 mv to reactivate the voltage-gated Na^+ channels. The conditioning pulse was followed by depolarizing (150 ms) test pulses to 50 mV in 10 mV increments. Na^+ currents were recorded in absence, after 3 min in presence of the drugs and after a recovery time of 3 min.

[2] = target: TRPV1 (Homo sapiens, UniProt Q8NER1); experiment: TRPV1 assay, calcium imaging; assay type: cell-based
TRPV1, sequence (Q8NER1 whole entry, species assumed): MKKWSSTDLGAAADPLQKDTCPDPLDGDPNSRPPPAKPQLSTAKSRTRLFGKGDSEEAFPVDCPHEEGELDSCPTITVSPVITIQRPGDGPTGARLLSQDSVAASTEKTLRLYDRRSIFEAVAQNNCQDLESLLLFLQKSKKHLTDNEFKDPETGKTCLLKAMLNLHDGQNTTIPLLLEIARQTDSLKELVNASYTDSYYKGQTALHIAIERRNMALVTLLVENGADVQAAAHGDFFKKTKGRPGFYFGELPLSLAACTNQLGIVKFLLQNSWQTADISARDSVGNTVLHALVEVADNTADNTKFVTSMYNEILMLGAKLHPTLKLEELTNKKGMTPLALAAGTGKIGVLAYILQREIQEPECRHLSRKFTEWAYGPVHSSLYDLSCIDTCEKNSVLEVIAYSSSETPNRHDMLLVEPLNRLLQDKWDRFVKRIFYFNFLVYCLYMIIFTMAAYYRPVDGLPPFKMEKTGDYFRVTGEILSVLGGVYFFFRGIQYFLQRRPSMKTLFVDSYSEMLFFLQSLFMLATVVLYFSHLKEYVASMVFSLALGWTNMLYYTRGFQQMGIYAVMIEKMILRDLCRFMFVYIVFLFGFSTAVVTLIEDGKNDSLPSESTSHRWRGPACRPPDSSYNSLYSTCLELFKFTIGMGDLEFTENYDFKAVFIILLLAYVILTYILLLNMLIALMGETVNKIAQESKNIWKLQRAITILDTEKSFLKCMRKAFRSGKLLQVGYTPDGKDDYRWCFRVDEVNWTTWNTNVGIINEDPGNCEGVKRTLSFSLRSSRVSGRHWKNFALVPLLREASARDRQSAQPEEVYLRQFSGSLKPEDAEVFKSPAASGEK
Description: Briefly, cells are seeded into poly-L-lysine-coated, glass-bottom, 24-well plates (1×10^5 cells/well) and incubated overnight under standard culture conditions to achieve the desired confluency. Culture media is removed and cells washed twice with HBS prior to incubation for 15 to 60 min at 37° C. with a labelling mixture comprised of Fura-2-AM and pluronic acid in HBS. Data collection occurs over an eight minute period and follows the same general sequence. Following loading, cells are stimulated by addition of 1 μM of capsaicin agonist for 2 min, after which a concentration series of the test sample (e.g., (0.5, 5, 10, 50 μg/ml) is added and imaging continued for an additional 5 min. Capsazepine (20 μM) serves as a known reference antagonist, while cells that are mock-treated or receive vehicle (e.g., DMSO) alone serve as negative controls. For imaging, plates are placed on the stage of an inverted epifluorescence microscope (e.g. Axiovert 200, Zeiss) equipped with a CCD digital camera (e.g., Axiocam MRm, Zeiss). For each well of the plate, a sequence of image pairs (excitation at 340 nm and 380 nm) are collected to capture intracellular calcium flux. Image sequences are analyzed in Image) (NIH) and average pixel intensities calculated for six representative cells in each test condition to achieve mean fluorescence.

[3] = tested on: zebrafish embryos; experiment: Zebrafish response (anaesthesia) assay, touch response/swim behaviour; assay type: in vivo; details: Danio rerio, 1.5 h; complete anaesthesia (scale 1) in 50% of AB wild type embryos (54 hpf), 90 min at 28° C.
Source text: Briefly, the ZEA assay involves applying essential oils, fractions or individual compounds to developmentally staged zebrafish embryos followed by monitoring of embryonic touch response/swim behaviour and evaluation of the dose response relationship for each substance. Using a four point scale to describe the embryonic behaviours (Table 4), initial analysis focused on monitoring and recording these changes and evaluating the level of bioactivity. The effective concentration to generate complete anaesthesia in 50% of the embryos (EC50), were evaluated as follows:
Compounds are tested on developmentally staged AB “wild type” zebrafish embryos (54 hpf+/−2 hpf) at concentrations ranging between 10 and 400 μM.
Each compound is diluted in a 95% ethanol or DMSO carrier to create a working stock solution from which appropriate dilutions are made in standard embryo E3 media.
1000 μl of each concentration or appropriate carrier control are added to 10 wild type AB embryos in a single well of a 24 well plate, in duplicate.
The embryos are incubated for 90 min at 28° C. (optimal temperature for embryonic growth) in the diluted compound.
A four point scale (Table 4) is used to evaluate the touch response and swim behaviour for each embryo in all wells.
The effectiveness of the compound will be based on its ability to generate complete anaesthesia (scale: 1) in 50% of the embryos at a given concentration (EC50).
The EC50 values are calculated using GraphPad Prism® software to analyze the log (dose) response curves.

[4] = Ca2+ imaging (Fura-2-AM) after stimulation with 1 μM capsaicin

| Compound | pIC50 [1] | pIC50 [2, 4] | pEC50 [3] | pIC50 ([2]; FIG. 2, Ca2+ imaging in HEK-TRPV cells) |
| --- | --- | --- | --- | --- |
| CNC(=O)C=C(C)CCC=C(C)C [NQ 2980, N,3,7-trimethylocta-2,6-dienamide] | 3.00 to 4.00 | < 3.26 | 3.73 |  |
| CC(C)=CCC/C(C)=C/C=O [NQ 2983, (E)-3,7-dimethylocta-2,6-dienal] | 2.30 to 3.00 | 3.18 to 3.31 | 3.95 | 3.31 |
